# From PMC5536191 (ACS chemical biology, 2017)
# “Also recorded” adds a separate entry of the source.
# How the values were obtained:
# Will-2 cells = assay: H3K27Me3 levels in DLBCL cells; assay type: cell-based
# T47D cells [1] = assay: H3Cit26 and H3K27Me3 levels after estradiol stimulation; assay type: cell-based
# MCF7 cells = assay: as above; assay type: cell-based
# T47D cells [2] = assay type: cell-based
# PAD [3] = conditions: ref [46]; cited from earlier work
# PRC2 = conditions: F-Amidine 1 mM
# PAD [4] = assay: PAD inhibition by F-Amidine; assay type: biochemical; conditions: F-Amidine 1 mM, 15 min
# UTX and JMJD3 = assay: Co-immunoprecipitation with PAD2 in MCF7 nuclear extracts; assay type: binding; conditions: MCF7 nuclear extracts post E2 stimulation
# ERα = assay: Co-immunoprecipitation of PAD2 and ERα in MCF7 nuclear extracts; assay type: binding; conditions: MCF7 nuclear extracts post E2 stimulation
# PRC2 complex = assay: PRC2 methyltransferase activity on histone H3 after PAD preincubation; assay type: biochemical, human; conditions: PAD preincubation with H3; Figure S1A and B
compound,measurement,setting,value
"N=C(CF)NCCC[C@H](NC(=O)c1ccc(-c2ccccc2)cc1)c1nc2ccccc2[nH]1 [BB-F-Amidine, N1-[1,4′-Phenyl]benzoyl-N5-(2-fluoro-1-inimoethyl)-1-(1H-benzo[d]imidazole-2-yl)-L-ornithine amide]",H3K27Me3 increase by PAD inhibitor in EZH2 knockdown cells,Will-2 cells; EZH2 knockdown cells treated with PAD inhibitor,attenuated
same,increase in H3K27Me3 levels,"Will-2 cells; PAD inhibitor treatment, DLBCL line (Will-2)",4 fold
"C[C@]12CC[C@@H]3c4ccc(O)cc4CC[C@H]3[C@@H]1CC[C@@H]2O [E2, 17-β-estradiol]",H3K27Me3 level,"T47D cells [1]; 100 nM, 1 h",modest reduction in H3K27Me3 levels
same,H3Cit26 signal,"T47D cells [1]; E2 stimulation, after 2 h",greatly reduced
same,H3K27Me3 level,"MCF7 cells; 100 nM, 4 h",modest reduction in H3K27Me3 levels
same,H3Cit26 signal,"MCF7 cells; E2 stimulation, after 2 h",lost
CCN(c1cc(-c2ccc(CN3CCOCC3)cc2)cc(C(=O)NCc2c(C)cc(C)[nH]c2=O)c1C)C1CCOCC1 [EPZ-6438],effect on baseline transcription before estradiol stimulation,"T47D cells [2]; 5 μM EPZ-6438, 5 days, absence of estradiol",basal transcriptional level is increased relative to control cells; also recorded: increased baseline transcription prior to E2 stimulation
same,effect on H3K27Me3 increase of PAD2 knockdown cells,Will-2 cells; PAD2 knockdown cells treated with EZH2 inhibitor,attenuated
"N=C(CF)NCCC[C@H](NC(=O)c1ccccc1)C(N)=O [F-Amidine, N-α-benzoyl-N5-(2-fluoro-1-iminoethyl)-L-ornithine amide]",PAD inhibition character,PAD [3],"highly selective, irreversible pan-PAD inhibitor"
same,effect on methyltransferase activity of PRC2,PRC2,no effect on the methyltransferase activity of PRC2
same,inhibition of PAD reaction,PAD [4],completely inhibits the PAD reaction
CCOC(=O)CCNc1cc(N2CCc3ccccc3CC2)nc(-c2ccccn2)n1 [GSK-J4],effect on E2-stimulated transcription of ERα-target genes (e.g. GDNF and KRT13),"T47D cells [2]; 400 nM GSK-J4, 5 days, baseline vs 60 min E2",downregulated
PAD2: Protein Arginine Deiminase type-2,co-immunoprecipitation with UTX and JMJD3,UTX and JMJD3,co-immunoprecipitates UTX and JMJD3
same,co-immunoprecipitation of PAD2 and ERα,ERα,PAD2 and ERα co-immunoprecipitate
same,"effect on PRC2 catalyzed methylation, time and dose dependence",PRC2 complex,decrease PRC2 catalyzed methylation in a time- and dose-dependent manner
PAD4: Protein Arginine Deiminase type-4,"effect on PRC2 catalyzed methylation, time and dose dependence",PRC2 complex,decrease PRC2 catalyzed methylation in a time- and dose-dependent manner
